# Measurements from patent US20070281947A1, “Diarylmethylpiperazines As Prophylactic Or Therapeutic Agents For Viral Myocarditis” (priority 2002, published 2007).
# Marks after values point to notes of the source that are not given here.
# Assays:
# Type in all cases: in vivo
# [1] = system: EMC (encephalomyocarditis) virus; assay: Effect on survival rate in a cardiac insufficiency model induced by EMC viral myocarditis in mice; details: for Survival rate (day 14): DBA/2 mice, EMC virus 1 pfu/mouse i.p., n = 10, control 10%
# Description: A comparative study was conducted on the effect of cetirizine on survival rate in a cardiac insufficiency model induced by EMC (encephalomyocarditis) viral myocarditis in mice.
# 28-day-old, male DBA/2 mice were divided into three groups, and EMC virus that causes myocarditis was inoculated intraperitoneally to all groups at 1 pfu/mouse (0.1 ml as phosphate-buffered saline (PBS)) (day 0)(pfu means plaque forming unit). The EMC virus used here was acquired from ATCC (American Type Culture Collection, Manassas, Va., U.S.A.), and said EMC virus was used after diluting with PBS.
# (§1) Following inoculation, a control group given only distilled water to serve as a control (n=10), a cetirizine low dose group to which cetirizine dissolved in distilled water was administered at a dose of 1 mg/kg/day (n=10), and a cetirizine high dose group to which cetirizine dissolved in distilled water was administered at 10 mg/kg/day (n=10), were forcibly fed once a day using a cannula (Wakenyaku Co., Ltd.) for 14 consecutive days.
# The survival rates of the above three groups after 14 days were compared according to the Kaplan-Meier method (documents such as StatView, SAS Institute Inc., Cary, N.C., U.S.A. 1988 can be referred to for further details regarding this Kaplan-Meier method).
# Data are obtained by analyzing the results obtained above according to the Kaplan-Meier method.
# EMC virus [2] = assay: Effect on intramyocardial cytokine production (ELISA) in a cardiac insufficiency model induced by EMC viral myocarditis in mice
# Description: A comparative study was conducted on the effect of cetirizine on cytokine production within heart muscle in a cardiac insufficiency model induced by EMC viral myocarditis in mice.
# 28-day-old, male DBA/2 mice were divided into three groups, and EMC virus was inoculated intraperitoneally to all groups at 1 pfu/mouse (day 0) in the same manner as Example 1.
# as §1, with “inoculation, similar to Example 1,” for “inoculation,”, “cetirizine” for “cetirizine dissolved in distilled water”, “in the same manner as Test Example 1” for “(Wakenyaku Co., Ltd.)”, “7” for “14”, “days. […]” for “days.”
# The protein concentration of each cytokine was measured by ELISA using a commercially available kit (Circulation, 100: 1102-1108, 1999). […]
# The total protein concentration of each supernatant was measured by the bicinchoninic acid (BCA) method followed by calculation of the ratio of cytokine concentration to total protein concentration (J. Am. Coll. Cardiol., 33: 1400-1407, 1999). Each cytokine protein concentration was expressed as pg/mg of total protein or ng/mg of total protein. […]
# EMC virus [3] = assay: Effect on histopathological changes in heart muscle in a cardiac insufficiency model induced by EMC viral myocarditis in mice; details: for Heart weight (g) (day 5) / Heart weight/body weight ratio (day 5): DBA/2 mice; for Heart weight (g) (day 5): EMC virus 1 pfu/mouse i.p.; for Heart weight/body weight ratio (day 5): EMC virus
# Description: A comparative study was conducted on the effect of cetirizine on histopathological changes in heart muscle in a cardiac insufficiency model induced by EMC viral myocarditis in mice.
# 28-day-old, male DBA/2 mice were divided into three groups, and EMC virus was inoculated intraperitoneally to all groups at 1 pfu/mouse (day 0) in the same manner as Test Example 1.
# Following inoculation, similar to Example 1, a control group given only distilled water to serve as a control (n=7), a cetirizine low dose group to which cetirizine was administered at a dose of 1 mg/kg/day (n=10), and a cetirizine high dose group to which cetirizine was administered at 10 mg/kg/day (n=7), were forcibly fed once a day using a cannula in the same manner as Test Example 1 for 5 consecutive days.
# After five days, the hearts of the animals were removed, stained with hematoxylin-eosin stain after fixing with formalin, and scored for the two parameters of heart muscle cellular necrosis and inflammatory cellular invasion in the manner described below (documents such as Circulation 1999; 100; 1823-1829 can be referred to for further details regarding this formalin fixation, hematoxylin-eosin staining and scoring). The scores for heart muscle cellular necrosis and inflammatory cellular invasion were evaluated independently by two observers and then averaged. Statistical analysis was performed using the one way analysis of variance (ANOVA) and Fisher's protected least significant difference test (documents such as StatVien, SAS Institute Inc., Cary, N.C., U.S.A., 1998 can be referred to for further details regarding these statistical analysis methods).
# 1+: Lesions in 25% or less of heart
# 2+: Lesions in more than 25% to 50% of heart
# 3+: Lesions in more than 50% to 75% of heart
# 4+: Lesions in more than 75% to 100% of heart
# Data consisting of heart weight, body weight, heart weight/body weight ratio, heart muscle cellular necrosis and inflammatory cellular invasion measured in accordance with that described above is summarized in Table 1 below. Furthermore, the previously described survival rate data and data relating to heart muscle interferon production to be described later are also shown in Table 1.
# [4] = 1 mg/kg/day oral, 5 days, n = 10, mean ± SD
# [5] = 10 mg/kg/day oral, 5 days, n = 7, mean ± SD
# [6] = score 0 to 4+ (share of heart with lesions), two observers averaged, 1 mg/kg/day oral, 5 days, n = 10, mean ± SD
smiles,measurement,setting,value
"O=C(O)COCCN1CCN(C(c2ccccc2)c2ccc(Cl)cc2)CC1 (racemic) [Cetirizine, (±)-[2-[4-[(4-chlorophenyl)phenylmethyl]-1-piperazinyl]ethoxy]acetic acid]",Effect on survival rate (in words),"[1]; 1 and 10 mg/kg/day, 14 days, Kaplan-Meier, p<0.05",improved concentration-dependently
same,Survival rate (day 14),"[1]; 1 mg/kg/day oral, 14 days, 1 mg/kg/day",40% (4/10)
same,Survival rate (day 14),"[1]; 1 mg/kg/day oral, 14 days, listed as cetirizine, 1 mg/kg/day",40%
same,Survival rate (day 14),"[1]; 10 mg/kg/day oral, 14 days, p < 0.05 vs. control, 10 mg/kg/day",50% (5/10)*
same,Survival rate (day 14),"[1]; 10 mg/kg/day oral, 14 days, p < 0.05 vs. control, listed as cetirizine, 10 mg/kg/day",50%
same,Overall efficacy against EMC viral infection / viral myocarditis (in words),[1]; summary of Examples 1 and 2: improved mortality rate of mice and viral myocarditis,effective against viral infection
same,Intramyocardial IFN-γ (in words),"EMC virus [2]; 7 days after virus inoculation, 1 and 10 mg/kg/day",concentration-dependent increase
same,Heart muscle interferon-γ (day 7),"EMC virus [2]; ELISA of ventricle homogenate, relative to total protein, 1 mg/kg/day oral, 7 days, n = 10, mean ± SD, p < 0.05 vs. control",2.2 ± 1.0
same,Histopathological changes of the heart (in words),"EMC virus [3]; 1 and 10 mg/kg/day, day 5, dose-dependently",trend of diminished inflammatory cell invasion and necrosis
same,Heart weight (g) (day 5),EMC virus [3]; [4],0.07 ± 0.008 g
same,Heart weight (g) (day 5),EMC virus [3]; [5],0.60 ± 0.006 g
same,Heart weight/body weight ratio (day 5),EMC virus [3]; [4],5.4 ± 1.1
same,Heart weight/body weight ratio (day 5),EMC virus [3]; [5],5.1 ± 0.8
same,Heart muscle cellular necrosis (day 5),EMC virus [3]; [6],1.8 ± 1.0
same,Inflammatory cellular invasion (day 5),EMC virus [3]; [6],2.3 ± 0.8
